# Tests used:
# E6 WT/E6AP [1] = molecular target: T1, E6 WT/E6AP (Human papillomavirus type 16, UniProt P03126); assay: biochemical; type: binding; settings: for Emax: 24 h, read-out: FP maximal inhibition (max %) E6 WT/E6AP; for IC50: FP IC50 at 24 h (μM) E6 WT/E6AP
# E6C51S/E6AP = E6C51S/E6AP (Human papillomavirus type 16, UniProt P03126, C58S); assay: E6/E6AP binding assay (amylose-bound MBP-16E6, E6AP-BAP activity), C51S 16E6; parameters: species or system HPV-16; settings: for % Inhibition @ 10 μM E6C51S/E6AP: 10 μM compound; for % Inhibition @ 100 μM E6C51S/E6AP: 100 μM compound
# E6 WT/E6AP [2] = molecular target: T1, E6 WT/E6AP; assay: biochemical; type: binding; settings: WT 16E6; for inhibition at 10 µM: 10 μM compound; for inhibition at 100 µM: 100 μM compound
# Chain of E6C51S/E6AP (P03126 whole entry C58S, looked up): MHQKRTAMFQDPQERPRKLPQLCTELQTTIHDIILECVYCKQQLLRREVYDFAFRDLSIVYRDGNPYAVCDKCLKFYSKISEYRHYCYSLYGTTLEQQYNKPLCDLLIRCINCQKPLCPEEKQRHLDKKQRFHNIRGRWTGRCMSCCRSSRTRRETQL
# T1 sequence (P03126 8-158): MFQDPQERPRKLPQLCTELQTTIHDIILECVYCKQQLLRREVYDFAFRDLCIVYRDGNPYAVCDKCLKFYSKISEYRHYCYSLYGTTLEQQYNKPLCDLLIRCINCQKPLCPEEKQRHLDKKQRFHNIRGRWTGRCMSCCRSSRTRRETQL
SMILES,Emax (E6 WT/E6AP [1]),IC50 (E6 WT/E6AP [1]),FP maximal inhibition (max %) E6 WT/E6AP (E6 WT/E6AP [1]; at 24 h),% Inhibition @ 10 μM E6C51S/E6AP (E6C51S/E6AP),% Inhibition @ 100 μM E6C51S/E6AP (E6C51S/E6AP),inhibition at 10 µM (E6 WT/E6AP [2]),inhibition at 100 µM (E6 WT/E6AP [2])
"C=CC(=O)N1CCN(c2nc(-c3ccccc3OC)nc3ccccc23)CC1 [EIN-160, 1-(4-(2-(2-methoxyphenyl)quinazolin-4-yl)piperazin-1-yl)prop-2-en-1-one]",100%,128 ± 2.3 µM,,,,,
"C=CC(=O)N1CCN(c2nc(CCc3cccc(OC)c3)nc3sc4c(c23)CCCC4)CC1 [EIN-151, 1-(4-(2-(3-methoxyphenethyl)-5,6,7,8-tetrahydrobenzo[4,5]thieno[2,3-d]pyrimidin-4-yl)piperazin-1-yl)prop-2-en-1-one]",,,(max 71%),,,,
"O=C(CCl)N1CCCN(C(=O)CN2CCc3sccc3C2c2cccc(F)c2)CC1 (centres unmarked) [EIN-119, 2-chloro-1-(4-(2-(4-(3-fluorophenyl)-6,7-dihydrothieno[3,2-c]pyridin-5(4H)-yl)acetyl)-1,4-diazepan-1-yl)ethan-1-one]",,,,9 ± 7%,34 ± 7%,33 ± 6%,61 ± 1%
"O=C(CCl)N1CCN(c2nc(Cc3ccccc3)nc3sc4c(c23)CCCC4)CC1 [EIN-127, 1-(4-(2-benzyl-5,6,7,8-tetrahydrobenzo[4,5]thieno[2,3-d]pyrimidin-4-yl)piperazin-1-yl)-2-chloroethan-1-one]",,,,41 ± 5%,79 ± 4%,57 ± 14%,106 ± 11%
"C=CC(=O)N1CCN(c2nc(N(C)Cc3ccccc3F)nc3sc4c(c23)CCCC4)CC1 [EIN-140, 1-(4-(2-((2-fluorobenzyl)(methyl)amino)-5,6,7,8-tetrahydrobenzo[4,5]thieno[2,3-d]pyrimidin-4-yl)piperazin-1-yl)prop-2-en-1-one]",,,,0%,0%,6 ± 6%,17 ± 4%
"C=CC(=O)N1CCN(c2nc(CCc3ccc(F)cc3)nc3ccccc23)CC1 [EIN-153, 1-(4-(2-(4-fluorophenethyl)quinazolin-4-yl)piperazin-1-yl)prop-2-en-1-one]",100%,27.7 ± 1.3 µM,,,,,
"C=CC(=O)N1CCN(c2nc(-c3ccc(OC4CC4)cc3)nc3ccccc23)CC1 [EIN-163, 1-(4-(2-(4-cyclopropoxyphenyl)quinazolin-4-yl)piperazin-1-yl)prop-2-en-1-one]",100%,41.6 ± 2.8 µM,,,,,
"Cc1ccccc1C1c2ccsc2CCN1C(C)C(=O)N1CCCN(C(=O)CCl)CC1 (centres unmarked) [EIN-117, 1-(4-(2-chloroacetyl)-1,4-diazepan-1-yl)-2-(4-(o-tolyl)-6,7-dihydrothieno[3,2-c]pyridin-5(4H)-yl)propan-1-one]",,,,,,17 ± 1%,33 ± 7%
"CC1CN(C(=O)CN2CCc3sccc3C2c2cccc(F)c2)CCN1C(=O)CCl (centres unmarked) [EIN-120, 2-chloro-1-(4-(2-(4-(3-fluorophenyl)-6,7-dihydrothieno[3,2-c]pyridin-5(4H)-yl)acetyl)-2-methylpiperazin-1-yl)ethan-1-one]",,,,12 ± 5%,34 ± 2%,18 ± 5%,63 ± 1%
"CCc1nc(N2CCN(C(=O)CCl)CC2)c2c3c(sc2n1)CCCC3 [EIN-131, 2-chloro-1-(4-(2-ethyl-5,6,7,8-tetrahydrobenzo[4,5]thieno[2,3-d]pyrimidin-4-yl)piperazin-1-yl)ethan-1-one]",,,,,,24 ± 3%,65 ± 3%
"CCCc1nc(N2CCN(C(=O)CCl)CC2)c2c3c(sc2n1)CC(C)CC3 (centres unmarked) [EIN-130, 2-chloro-1-(4-(7-methyl-2-propyl-5,6,7,8-tetrahydrobenzo[4,5]thieno[2,3-d]pyrimidin-4-yl)piperazin-1-yl)ethan-1-one]",,,,52 ± 12%,85 ± 6%,46 ± 9%,100 ± 9%
"C=CC(=O)N1CCN(c2nc(N(C)Cc3ccc(F)cc3)nc3sc4c(c23)CCCC4)CC1 [EIN-142, 1-(4-(2-((4-fluorobenzyl)(methyl)amino)-5,6,7,8-tetrahydrobenzo[4,5]thieno[2,3-d]pyrimidin-4-yl)piperazin-1-yl)prop-2-en-1-one]",,,,0%,0%,17 ± 4%,28 ± 3%
"C=CC(=O)N1CCN(c2nc(N(C)Cc3cccc(F)c3)nc3sc4c(c23)CCCC4)CC1 [EIN-141, 1-(4-(2-((3-fluorobenzyl)(methyl)amino)-5,6,7,8-tetrahydrobenzo[4,5]thieno[2,3-d]pyrimidin-4-yl)piperazin-1-yl)prop-2-en-1-one]",,,,0%,0%,0%,18 ± 5%
"Cc1nc(N2CCN(C(=O)CCl)CC2)c2c3c(sc2n1)CCCC3 [EIN-123, 2-chloro-1-(4-(2-methyl-5,6,7,8-tetrahydrobenzo[4,5]thieno[2,3-d]pyrimidin-4-yl)piperazin-1-yl)ethan-1-one]",,,,44 ± 10%,90 ± 6%,58 ± 12%,114 ± 11%
"Cc1sc2nc(C3CC3)nc(N3CCN(C(=O)CCl)CC3)c2c1C [EIN-129, 2-chloro-1-(4-(2-cyclopropyl-5,6-dimethylthieno[2,3-d]pyrimidin-4-yl)piperazin-1-yl)ethan-1-one]",,,,57 ± 12%,103 ± 5%,81 ± 16%,119 ± 13%
"CCCCc1nc(N2CCN(C(=O)CCl)CC2)c2c3c(sc2n1)CCCC3 [EIN-126, 1-(4-(2-butyl-5,6,7,8-tetrahydrobenzo[4,5]thieno[2,3-d]pyrimidin-4-yl)piperazin-1-yl)-2-chloroethan-1-one]",,,,12 ± 5%,34 ± 2%,18 ± 5%,63 ± 1%
"COc1ccc(C2c3ccsc3CCN2CC(=O)N2CCN(C(=O)CCl)C(C)C2)cc1 (centres unmarked) [EIN-121, 2-chloro-1-(4-(2-(4-(4-methoxyphenyl)-6,7-dihydrothieno[3,2-c]pyridin-5(4H)-yl)acetyl)-2-methylpiperazin-1-yl)ethan-1-one]",,,,,,24 ± 2%,52 ± 1%
"CCCCc1nc(N2CCN(C(=O)CCl)CC2)c2c3c(sc2n1)CC(C)CC3 (centres unmarked) [EIN-124, 1-(4-(2-butyl-7-methyl-5,6,7,8-tetrahydrobenzo[4,5]thieno[2,3-d]pyrimidin-4-yl)piperazin-1-yl)-2-chloroethan-1-one]",,,,49 ± 11%,90 ± 5%,71 ± 13%,113 ± 13%
"Cc1ccccc1C1c2ccsc2CCN1CC(=O)N1CCN(C(=O)CCl)C(C)C1 (centres unmarked) [EIN-118, 2-chloro-1-(2-methyl-4-(2-(4-(o-tolyl)-6,7-dihydrothieno[3,2-c]pyridin-5(4H)-yl)acetyl)piperazin-1-yl)ethan-1-one]",,,,12 ± 11%,79 ± 5%,49 ± 5%,98 ± 2%
"Cc1sc2nc(CCc3ccccc3)nc(N3CCN(C(=O)CCl)CC3)c2c1C [EIN-128, 2-chloro-1-(4-(5,6-dimethyl-2-phenethylthieno[2,3-d]pyrimidin-4-yl)piperazin-1-yl)ethan-1-one]",,,,19 ± 8%,60 ± 3%,47 ± 14%,106 ± 11%

# — patent US12533339B2, “Small molecule antiviral drug treatment for human papillomavirus infections” (THE TRUSTEES OF INDIANA UNIVERSITY, priority 2020, dated 2026)
